Patent US20210388012A1, “METHODS AND COMPOSITIONS FOR PRODRUG FORMS OF SPECTINOMYCIN AND SPECTINAMIDE ANALOGS” (priority 2018, published 2021)

Tests used:
in vitro = in vitro ADME; details: human plasma, 37° C., read-out: Plasma Stability (Human) t½ (converted)
Method: (§1) LC-MS Method 2. Chromatographic separation was performed on an Acquity UPLC BEH C18 1.7 μm, 2.1×50 mm column (Waters Corporation, Milford, Mass.) or a Luna Omega 1.6 μm C18, 2.1×50 mm column (Phenomenex, Torrance, Calif.) using an Acquity ultra performance liquid chromatography system. Data were acquired using Masslynx v. 4.1 and analyzed using the Openlynx software suite. This was coupled to an Acquity photodiode array detector, which acquired UV data from 210-400 nm. The flow was then split, with half directed to an evaporative light scattering detector (ELSD) and half to an SQ mass spectrometer. The total flow rate was 1 mL/min. The sample injection volume was 10 μL. The UPLC column was maintained at 60° C. and the gradient program with either basic mobile phase (A1, 10 mM ammonium bicarbonate in MilliQ H2O; B1, 0.1% formic acid in acetonitrile) or formic mobile phase (A1, 0.1% formic acid in MilliQ H2O; B1, 0.1% formic acid in acetonitrile) based on the compounds' physical and chemical properties. The mass spectrometer was operated in positive-ion mode with electrospray ionization. The conditions were as follows; capillary voltage 3.4 kV, cone voltage 30 V, source temperature 130° C., desolvation temperature 400° C., desolvation gas 800 L/hr, cone gas 100 L/hr. A full scan range from m/z=110-1000 in 0.2 s was used to acquire MS data. The ELSD-drift tube temperature was set at 52° C.
Plasma stability was determined after incubation in human plasma for various incubation time, i.e., incubation times of 0, 3, 24, and 48 hour were used. DMSO stock solutions of test compounds were prepared at 10 mM concentration. 1.8 μL of each test compound was each added directly to 1.8 mL of human plasma to get the final concentration of 10 μM. This compound/matrix was mixed and 70 μL was transferred to 4 time points plates (each in triplicate wells). […] The plasma stability was evaluated via the half-life from least-squares fit of the multiple time points based on first-order kinetics.

[1] = Metabolic stability, human liver microsomal degradation; format: in vitro ADME; details: human liver microsomes; read-out: Metabolic Stability (Human) t½ (converted)
Method: as §1
The stability of compounds to human liver microsomal degradation, i.e., metabolic stability, was determined as described previously (see North, E. J., et al, Bioorg. Med. Chem. (2013) 21(9):2587-2599) and the rate of degradation was monitored by LC-MS analysis using multiple sampled time points as described herein above in LC-MS Method 2. Metabolic stability was evaluated via the half-life from least squares fit of the concentration remaining at the time points based on first-order kinetics.

[2] = Single ascending maximum tolerated dose study in rat; format: in vivo; details: female Sprague-Dawley rats
Method: Several compounds were assessed in single ascending maximum tolerated studies. The compounds assessed were 1810; 3408, a prodrug form of compound 1810; 1599, a chloro homologue of compound 1810; and gentamicin, an antimicrobial associated with ototoxicity. The study was carried out in female Sprague-Dawley rats (n=3 per group). All the drug solutions were prepared in water and PLASMA-LYTE A (50:50; […] was obtained from Baxter Healthcare Corporation, Deerfield, Ill.). Each group of rats were fasted overnight with access to water aJ libitum and a fixed volume (2 mL) of drug-containing solution was administered via the jugular vein catheter. Food was withheld for 3 h post dosing. Different phases of the study were classified on five different speeds of i.v, administration; Phase 1: 5 sec, Phase 2: 30 sec, Phase 3: 5 min, Phase 4: 15 min, Phase 5: 30 min. In the first and second phases, a set of predefined dose levels: 10, 25, 50, 75, 100, 150, 300, 350, 400, 450 and 500 mg/kg. Escalation to the next higher dose was conditional upon absence of signs of acute toxicity following the immediate lower dose over a 24 h period. All animals were monitored by visual inspection focused on focus on changes in skin, fur, eyes, and also respiratory, circulatory, autonomic and central nervous systems, along with somatomotor activity and behavior pattern, including tremors, convulsions, salivation, diarrhea, lethargy, sleep and coma. A dose level was deemed an MTD if […] of acute toxicity were observed and that dose was chosen for the second phase of the study where the process was repeated to determine a toxic dose. For third, fourth and fifth phases, dosing solution was infused by a Instech tethering system (Instech Laboratories Inc., Plymouth Meeting, Pa.) where the animal is freely moving within its cage, the catheter connection is held in place by a vascular access harness and a swivel system, and the drug administration is performed via a Harvard Apparatus programmable syringe pump. After dosing, the tether was removed immediately after completion of the infusion and the catheter was flushed with (100 μL) PlasmaLyte A. Surviving animals from the previous dose with no signs of toxicity were re-used in either phases of these studies upon allowing a one day drug washout period.

## CN[C@@H]1[C@H](O)[C@H](NC)[C@H]2O[C@]3(O)[C@H](O[C@@H]2[C@H]1O)O[C@H](C)C[C@H]3NC(=O)Cc1ccc(-c2ccc(OP(=O)(O)O)cc2)cn1 [Compound 4074, 4-(6-(2-oxo-2-(((2R, 4R, 4aS, 5aR, 6S, 7S, 8R, 9S, 9aR, 10aS)-4a,7,9-trihydroxy-2-methyl-6,8-bis(methyl-amino)decahydro-2H-benzo[b]pyrano[2,3-e][1,4]dioxin-4-yl)amino)ethyl)pyridin-3-yl)phenyl dihydrogen phosphate]
In vitro
  half-life at 10 µM: < 5 min
[1]
  half-life: 179 min

## gentamicin [reference compound]
[2]; 5 second IV bolus
  MTD: 100 mg/kg
[2]; 30 second IV bolus
  MTD: 100 mg/kg
[2]; 5 minute IV infusion
  MTD: 200 mg/kg
[2]; 15 minute IV infusion
  MTD: 300 mg/kg
[2]; 30 minute IV infusion
  MTD: 400 mg/kg

## CCOP(=O)(OCC)Oc1ccc(CC(=O)N[C@@H]2C[C@@H](C)O[C@H]3O[C@@H]4[C@@H](O)[C@H](NC)[C@H](O)[C@H](NC)[C@H]4O[C@]32O)nc1 [Compound 3906, Diethyl (6-(2-oxo-2-(((2R,4R,4aS, 5aR,6S,7S,8R,9S,9aR,10aS)-4a,7,9-trihydroxy-2-methyl-6,8-bis(methylamino)decahydro-2H-benzo[b]pyrano[2,3-e][1,4]dioxin-4-yl)amino)ethyl)pyridin-3-yl) phosphate]
In vitro
  half-life at 10 µM: 1170 min
[1]
  half-life: 217 min

## CN[C@@H]1[C@H](O)[C@H](NC)[C@H]2O[C@]3(O)[C@H](O[C@@H]2[C@H]1O)O[C@H](C)C[C@@]3(O)CNCc1ccc(F)c(OP(=O)(O)O)c1 [Compound 3959, 2-fluoro-5-(((((2R,4R,4aS,5aR,6S,7S,8R,9S,9aR,10aS)-4,4a,7,9-tetrahydroxy-2-methyl-6,8-bis(methylamino)decahydro-2H-benzo[b]pyrano[2,3-e][1,4]dioxin-4-yl)methyl)amino)methyl)phenyl dihydrogen phosphate]
[1]
  half-life: 110 min
